We go through one compound from article PMC9683054, “Synthesis of N-(4-chlorophenyl) substituted pyrano[2,3-c]pyrazoles enabling PKBβ/AKT2 inhibitory and in vitro anti-glioma activity” (Annals of Medicine, 2022).

Structures are written as SMILES.

The target in one assay is T1, AKT2/PKBβ (Homo sapiens, UniProt P31751, S474D).
T1 construct: ΔPH-PKBβ-S474D
As to the kind of experiment: […]-γ-ATP radiometric kinase assay with purified kinase and Crosstide peptide. The assay is classed as biochemical.

A further assay concerns the target T2, AKT1/PKBα (Homo sapiens, UniProt P31749, S473D).
T2 construct: ΔPH-PKBα-S473D
The description is as above. Type of assay: biochemical.

T1 sequence (P31751 119-481 S474D limits assumed): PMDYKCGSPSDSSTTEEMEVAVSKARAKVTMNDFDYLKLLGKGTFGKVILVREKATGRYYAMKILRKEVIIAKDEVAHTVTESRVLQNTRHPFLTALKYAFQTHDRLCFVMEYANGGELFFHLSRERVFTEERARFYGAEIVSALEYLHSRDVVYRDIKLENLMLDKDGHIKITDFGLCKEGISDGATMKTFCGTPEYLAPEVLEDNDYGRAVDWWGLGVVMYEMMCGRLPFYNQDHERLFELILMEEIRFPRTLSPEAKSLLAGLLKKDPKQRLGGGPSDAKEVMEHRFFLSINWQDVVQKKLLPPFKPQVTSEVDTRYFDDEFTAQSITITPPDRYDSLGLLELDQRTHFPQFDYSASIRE
T2 sequence (P31749 118-480 S473D limits assumed): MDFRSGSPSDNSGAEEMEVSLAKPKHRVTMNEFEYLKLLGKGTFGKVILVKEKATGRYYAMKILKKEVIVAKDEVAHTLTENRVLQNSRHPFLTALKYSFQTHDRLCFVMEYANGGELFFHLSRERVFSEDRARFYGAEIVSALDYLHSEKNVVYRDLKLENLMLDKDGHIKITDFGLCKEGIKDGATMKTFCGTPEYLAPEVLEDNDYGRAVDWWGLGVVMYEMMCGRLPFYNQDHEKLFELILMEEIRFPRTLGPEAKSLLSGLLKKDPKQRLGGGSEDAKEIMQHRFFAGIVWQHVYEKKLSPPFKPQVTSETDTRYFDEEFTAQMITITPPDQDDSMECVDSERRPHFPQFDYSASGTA

Turning to `Cc1nn(-c2ccc(Cl)cc2)c2c1C(c1ccc(-c3ccccc3)cc1)C(C#N)=C(N)O2` (centres unmarked) [4j, 6-Amino-4-(biphenyl-4-yl)-1-(4-chlorophenyl)-3-methyl-1,4-dihydropyrano[2,3-c]pyrazole-5-carbonitrile], the values for the IC50 against AKT2/PKBβ and against AKT1/PKBα were 12 µM and 14 µM, respectively.
